Assay results reported in patent US20240199626A1, “COMPOUNDS WITH IMPROVED CARDIAC SAFETY FOR THE TREATMENT OF CANCER AND NEURODEGENERATIVE DISORDERS” (priority 2021, published 2024).
Read-outs that look alike come from different tables or passages of the source.

What was measured:
[1] = tested on: hiPSC-CMs; assay: Cardiotoxicity assay in hiPSC-CMs (voltage transients, arrhythmia, contractility)
Description: iPSC-CMs: Human fibroblasts were reprogrammed to induced pluripotent stem cells (iPSCs) using Sendai viral vectors. All protocols were approved by the Stanford University Institutional Review Board. The obtained hiPSC clones were cultured in E8 cell culture media (Life Technologies) in plates coated growth factor-reduced Matrigel (Corning) until at least passage 20 before differentiation. hiPSC cells were differentiated into cardiomyocytes (CMs) utilizing a chemically defined cardiomyocyte differentiation protocol^55 and fatty acid rich maturation protocol.^56
hiPSC-CMs were plated on Matrigel coated 384-well plates at 20,000 cells per well (Greiner μClear) in 50 μl cardiomyocyte media (RMPI, B27) supplemented with 10% knock-out replacement serum. The subsequent day an additional 50 μl of media was added and cells were grown for a minimum of 5 days prior to analysis. Action potential kinetics and contractility was measured on the same cells sequentially. First, action potential kinetics were recorded using the protocol as established by Mckeithan et al.^58 Briefly, the cells were washed 5 times with FluoroBrite, loaded with VF2.1.CI dye for 50 min at 37° C., and washed again 5 times with FluoroBrite. Voltage time series were acquired at a frequency of 33 Hz for a duration of 10 s on the IC200 Kinetic Imaging Platform (Vala Sciences). […] The resulting recordings were subsequently analyzed using Vala Sciences and custom software, action potential kinetics, action potential durations and rates,^58 or contractile activity parameters (peak divergence, area under the curve) were used as measures of cardiotoxicity.^59

[2] = tested on: K-562 cells; assay: Cell viability / growth inhibition (AlamarBlue), K-562; format: cell-based; settings: Homo sapiens
Description: (§1) K562 and K562-T315I: The Leukemia cell lines K562 were purchased and maintained as recommended by ATCC (Manassas, VA, USA). Briefly, K562 cells were cultured in suspension in RPMI1640 (ThermoFisher Scientific, USA) supplemented with 10% fetal bovine serum and Pen/Strep/L-Glutamine. […] Briefly, one million K562 cells were seeded in 6-well plates and transfected with Lipofectamine 2000 and 1 μg of CRISPR/Cas9 vector (pSpCas9(BB)-2A-GFP) incorporating the guide sequence ([…]), and Lipofectamine RNAiMax and 4 μg of ssDNA donors (1ug of each donor, Supplementary Table 1) for each well of a 6-well plate.
(§2) The effects of the compounds on cell viability were evaluated using the AlamarBlue assay using the NCI60 methodology.^57 Cells were harvested and plated in 384-well plates (Greiner μClear) at a concentration of 1250 cells/well in 40 μL, and incubated for 24 h at 37° C. The next day, test compounds were added to the cells as a 2×40μL solution, and incubated for 48 h at 37° C.

[3] = tested on: K-562-T315I cells (K-562 cells expressing BCR-ABL^T315I); assay: Cell viability / growth inhibition (AlamarBlue), K-562-T315I; format: cell-based; settings: Homo sapiens, K562, read-out: Cell Inhibition IC50 K-562-T315I
Description: as §1, §2

[4] = Serum cardiac troponin levels in treated mice; settings: 30 mg/kg daily by oral gavage; indication of cardiac damage
[5] = tested on: HEK cells; assay: HEK cell growth inhibition
[6] = K562, Table 5, ± SD, read-out: Cell Inhibition IC50 K562

O=C(Nc1ccc(OC(F)(F)Cl)cc1)c1cnc(N2CC[C@@H](O)C2)c(-c2ccn[nH]2)c1 [Asciminib]
Cardiotoxicity (overall maximum toxic dose) ([1]; Table 5): 4.81 µM

Cc1nccc(Nc2ncc(C(=O)Nc3c(C)cccc3Cl)s2)n1 [Compound 3b, N-(2-chloro-6-methylphenyl)-2-((2-methylpyrimidin-4-yl)amino) thiazole-5-carboxamide]
Cardiotoxicity (overall maximum toxic dose) ([1]; Table 1): >10 µM

Cc1ccc(C(=O)N2CCN(C)CC2)cc1C#Cc1cnc2cccnn12 [Compound 10a, (3-(imidazo[1,2-b]pyridazin-3-ylethynyl)-4-methylphenyl)(4-methylpiperazin-1-yl)methanone]
Cardiotoxicity (overall maximum toxic dose) ([1]; Table 3): >10 µM

C#Cc1cc(C(=O)Nc2ccc(CN3CCN(C)CC3)c(C(F)(F)F)c2)ccc1C [Compound 19, 3-ethynyl-4-methyl-N-(4-((4-methylpiperazin-1-yl)methyl)-3-(trifluoromethyl)phenyl) benzamide]
Cardiotoxicity (overall maximum toxic dose) ([1]; Table 4): 1.13 µM

Cc1ccc(C(=O)Nc2ccc(CN3CCN(C)CC3)c(C(F)(F)F)c2)cc1 [Compound 21a, 4-methyl-N-(4-((4-methylpiperazin-1-yl)methyl)-3-(trifluoromethyl)phenyl)benzamide]
concentration at which cardiotoxicity was observed / cardiac-safe up to [1]: 1450 nM
Cardiotoxicity (overall maximum toxic dose) ([1]; Table 4): 1.45 µM

C#Cc1cc(C(=O)Nc2cc(-n3cnc(C)c3)cc(C(F)(F)F)c2)ccc1C [Compound 26, 3-ethynyl-4-methyl-N-(3-(4-methyl-1H-imidazol-1-yl)-5-(trifluoromethyl)phenyl)benzamide]
Cardiotoxicity (overall maximum toxic dose) ([1]; Table 4): >10 µM

C#Cc1cc(C(=O)Nc2ccc(CN3CCN(C)CC3)c(C(F)(F)F)c2)ccc1OC [Compound 29, 3-ethynyl-4-methoxy-N-(4-((4-methylpiperazin-1-yl)methyl)-3-(trifluoromethyl)phenyl)benzamide]
concentration at which cardiotoxicity was observed / cardiac-safe up to [1]: 1340 nM
Cardiotoxicity (overall maximum toxic dose) ([1]; Table 4): 1.34 µM

Cc1nc(Nc2ncc(C(=O)Nc3c(C)cccc3Cl)s2)cc(N2CCN(CCO)CC2)n1 [Dasatinib]
IC50 [2, 6]: 0.4 nM
Cardiotoxicity (overall maximum toxic dose) ([1]; Table 5): >10 µM

Cc1cn(-c2cc(NC(=O)c3ccc(C)c(Nc4nccc(-c5cccnc5)n4)c3)cc(C(F)(F)F)c2)cn1 [Nilotinib]
IC50 [2, 6]: 26 nM
Cardiotoxicity (overall maximum toxic dose) ([1]; Table 5): 1.12 µM
IC50 [3]: > 10000 nM

Cc1ccc(C(=O)Nc2ccc(CN3CCN(C)CC3)c(C(F)(F)F)c2)cc1C#Cc1cnc2cccnn12 [Ponatinib]
IC50 ([2]; K562, read-out: Cell Inhibition IC50 K562): 0.5 nM
serum cardiac troponin levels [4]: increased troponin levels
inhibition of growth of healthy HEK cells at [5]: 1.1 µM
effect on cardiomyocyte contractility (peak contraction amplitude) ([1]; FIGS. 3D, 3E, hiPSC-CMs from two healthy donors): potently suppresses cardiomyocyte contractility
Cardiotoxicity (overall maximum toxic dose) ([1]; Table 5): 0.47 µM
